Measured values published in PMC10097024, “Cytotoxic and Antibacterial Prenylated Acylphloroglucinols from Hypericum olympicum L” (Plants, 2023).

Key:
[1] = test system: SKW-3; parameters: method as in PMID 26411018; conditions: human leukemia cell line SKW-3, dissolved in DMSO; cited from earlier work
[2] = test system: BV-173; parameters: method as in PMID 26411018; conditions: human leukemia cell line BV-173, dissolved in DMSO; cited from earlier work
[3] = test system: procaspase 9; test: Western blot, procaspase 9; type: cell-based, human; conditions: MDA-MB-231 and HL60/DOX
Description: Next, the samples were lysed on ice with a buffer containing 100 mM Tris–HCl at pH 8.0, 4% SDS, 20% glycerol, 1% Na3VO4, 200 mM dithiothreitol (DTT) (Sigma-Aldrich, St. Louis, MO, USA) and protease inhibitor (Roche, Basel, Switzerland). Then the cell lysate was boiled for 15 min and centrifuged at 13,000 rpm for 10 min at 4 °C. Before DTT addition, aliquot samples of 10 μL were taken from the lysates. Their protein concentrations were determined using a BCA protein assay kit (ThermoFisher Scientific, Waltham, MA, USA) after dilution 5× with H2O. Subsequently, the samples were subjected to denaturing SDS-PAGE electrophoresis and then transferred to PVDF membrane (Santa Cruz Biotechnology, USA). After this, the blots were fixed with blocking solution (5% w/v nonfat dried milk powder, dissolved in TBS) and incubated with specific primary antibodies: mouse procaspase-9 (sc-17784), mouse Bcl-2 (C-2, sc-7382) and mouse β-actin (sc-8432). The incubation was either overnight at 4 °C or for 150 min at room temperature. After washing, the membranes were incubated for 45 min with horseradish peroxidase conjugated secondary goat anti-mouse antibody (sc-2005) or mouse IgG kappa antibody (sc-516102) (Santa Cruz Biotechnology, Santa Cruz, CA, USA). […] This densitometry analysis of the blots was calculated by Quantity One software version 4.6.9 (Bio-Rad Laboratories, Hercules, CA, USA). […]

Compound	IC50 [1]	IC50 [2]	degradation of the precursor caspase 9 (in words) [3]
CC(C)=CCC[C@]1(C)[C@@H](CC=C(C)C)C[C@]2(C)C(=O)C(CC=C(C)C)=C(O)[C@@]1(C(=O)C(C)C)C2=O [Compound 3, hyperpolyphyllirin/hyperibine J]	5.3 µM	5.7 µM	–
CC(C)=CCC[C@]1(C)[C@@H](CC=C(C)C)C[C@H]2C(=O)[C@]1(C(=O)C(C)C)C(=O)C(CC=C(C)C)=C2O [Compound 5, (1S,5R,7S,8R)-4-hydroxy-1-isobutyryl-8-methyl-3,7-bis(3-methylbut-2-en-1-yl)-8-(4-methylpent-3-en-1-yl)bicyclo[3.3.1]non-3-ene-2,9-dione]	–	–	not any observed decrease
